Patent publication US20120046321A1, “METHODS OF TREATING ATRIAL FIBRILLATION WITH P38 INHIBITOR COMPOUNDS” (INTERMUNE, INC., priority 2005, published 2012)
Entries after “also recorded” stand apart in the source; their conditions may differ.

How the values were obtained:
Type in all cases: in vivo, canine
IL-6 = assay: Western blot of atrial tissue; details: 3 groups
TGF-β1 = assay: Western blot of atrial tissue; details: CHF+PFD vs CHF
[1] = test system: matrix metalloproteinase (MMP)-9; assay: Western blot of atrial tissue; details: active form 88 kDa, CHF+PFD vs CHF
[2] = test system: canines with ventricular tachypacing (VTP)-induced congestive heart failure (CHF); assay: AF inducibility in open-chest EP study (single extrastimulus and burst pacing)
From the text: Briefly, 15 adult mongrel canines (weight 20 to 32 kgs) were divided into 3 groups (n=5 in each group) as follows: Group 1: Normal; Group 2: CHF canines not treated with PFD (or CHF); and Group 3: CHF canines treated with PFD (or CHF+PFD). […] The CHF and CHF+PFD canines underwent placement of a permanent single-chamber pacemaker with the pacing lead positioned in the right ventricular apex followed by radiofrequency catheter ablation of the AV junction to create complete heart block. Canines in the CHF and CHF+PFD groups underwent 3 weeks of VTP at a rate of 220 bpm. […] Effective refractory periods (ERPs) were measured at 12 atrial sites (6 in LA, 6 in RA) using the single extrastimulus protocol (S1S2) at an 8-beat drive train basic cycle lengths (BCLs) of 200, 300, and 400 ms. During stimulation of the contralateral Bachmann's bundle, conduction velocity (CV) was calculated between pairs of plaque electrodes perpendicular to the activation wavefront with a custom-written software. […] Two measures were derived to quantify conduction heterogeneity: 1) absolute conduction heterogeneity, defined as P95-P5 (P95-5), and 2) conduction heterogeneity index, defined as the absolute conduction heterogeneity normalized by the median phase, or P95-5/P50. […]

With `Cc1ccc(=O)n(-c2ccccc2)c1` [PFD, 5-methyl-1-phenyl-2-(1H)-pyridone] the “Expression of IL-6” value (IL-6) was “unchanged; also recorded: not markedly different”, the “Expression of TGF-β1” value (TGF-β1) was “downregulation; also recorded: reduced” and the “Expression of MMP-9” value [1] was “downregulation; also recorded: reduced”. For the same molecule, the “Mean AF duration” value ([2]; CHF+PFD, p<0.009 vs. CHF (1488±698 secs), Normal 16±25 secs) was 12 ± 13 s and the “Sustained AF” value ([2]; open-chest experiments, untreated CHF 4/5, p<0.007) was “only observed in the untreated CHF canines”.
